Test results published in patent US20220056075A1, “METHOD FOR TREATING OPIOID USE DISORDER” (THE ADMINISTRATORS OF THE TULANE EDUCATIONAL FUND, priority 2019, published 2022).
Values joined by “and” are separate entries in the source; they are usually repeats but may differ in a detail not shown here. Identical values can stand only once. “Also recorded” adds a separate entry of the source.

Legend:
Male Sprague-Dawley rats = test: Reinstatement of morphine-induced conditioned place preference; details: priming dose 1.8 mg/Kg, 20 min, vs baseline
Experimental: Male Sprague-Dawley rats were exposed to a conditioned place preference (CPP) apparatus for two sessions to determine baseline (BL) preference for 2 distinct, unbiased chambers. […] The animals then underwent extinction procedures consisting of confinement for 45 min in the previously drug- and vehicle-paired chambers for 7 days.

[1] = system: rats trained to discriminate morphine from vehicle; test: Drug discrimination (DD), morphine-trained rats; details: for Maximum % drug-appropriate responding / response rates for food during test sessions: i.v.; for Maximum % drug-appropriate responding: male rats; for Response rate impairment %: highest dose tested (5.6 mg/Kg), percent of vehicle responding; for response rates for food during test sessions: compared to vehicle
Experimental: Drug Discrimination (DD): Rats were food deprived to approximately 85% of the weight of free feeding cohorts to establish operant responding for 45 mg food pellets (Bioserve, Frenchtown, N.J.) in standard operant chambers (MED Associates, St. Albans, Vt.). Rats were fed 10-20 g of standard food after daily DD sessions, and ˜3× the daily amount on weekends to maintain appropriate weight. DD consisted of 3 phases (Krivsky et al., 2006). In phase 1, rats were trained to lever press for food at a fixed ratio (FR) level 1 (i.e., 1 lever press=1 food pellet) using 2 levers with stimulus lights located above each lever and a food hopper between the levers during 120 min sessions. Responding on either lever extinguished the light and delivered a food pellet. […] Once >20 pellets were earned at FR9, sessions were shortened to 20 min and response requirements were set at FR10 and the left or right lever reinforced responding on alternate days. Once >20 pellets were earned on each lever at FR10, rats started phase 2 of DD training.
Only responses on the correct lever were reinforced and responses on the incorrect lever reset the response requirement on the correct lever. Criteria to move to phase 3 were as follows: >20 pellets per session, >90% injection appropriate lever responding, and <9 responses on the incorrect lever before the first food pellet reward.
Two paradigms were utilized to generate substitution curves: cumulative within-session and bolus between-session injections.
During substitution tests, both levers actively delivered food at an FR10 schedule. […] Doses were increased in ¼ log increments, with injections every 20 min followed 15 minutes later by DD sessions lasting 5 min each. […] The advantage of this procedure was that an entire dose-response was generated in one session.
Statistics: PRISM software (GraphPad, San Diego, Calif.) was used for one-way analysis of variance (ANOVA) with Newman-Keuls post-hoc comparisons to compare CPP groups, locomotor effects, hot plate, and DD response rates. Locomotor data recorded during the conditioning sessions were analyzed by 2-way ANOVA (session x drug) and data from the first session were subtracted from the final session to assess locomotor enhancement. Experimenters were blinded to treatment groups.

[2] = system: dopamine (DA) neurons in the posterior VTA; test: VTA dopamine cell soma morphology (TH staining, STEREO INVESTIGATOR); format: in vivo, rat; details: 5 consecutive daily i.v. injections; morphine effect at 5.6 mg/Kg
Experimental: DA morphology analysis: Fifteen min following the final CPP test session, rats were anesthetized with a mixture of ketamine/xylazine (85/10 mg/Kg, i.p., respectively) and perfused intracardially with 200 mL of 0.1 mol/L phosphate buffered saline (PBS) immediately followed by 300 mL of 4% paraformaldehyde in 0.1 mol/L PBS (pH=7.4). Brains were removed and post-fixed at 4° C. in the same fixative for 18 h. After post-fixation, brains were incubated in 30% sucrose at 4° C. for 2 days and sectioned coronally on a cryostat at 40 μm at the level of the posterior VTA (Spiga et al., 2003; Chu et al., 2008). After 2 consecutive washes in PBS, sections were blocked with 5% normal donkey serum (NDS) for 1 h, and incubated with the primary antibody anti-tyrosine-hydroxylase (anti-TH, 1: 3000 Cell Signaling Technology, Danvers, Mass.) overnight at 4° C. Slices were washed twice in PBS, re-blocked for 1 h, and incubated with the secondary antibody ALEXA594 (Life Technologies, Carlsbad, Calif.), for 2 h. Sections were washed, mounted on slides with PROLONG GOLD (Life Technologies), and stored at 4° C. Posterior VTA sections were verified according to the atlas of Paxinos and Watson (2007). Images of the parabrachial pigmented area (PBP) and the paranigral area (PN) subregions of the posterior VTA were captured in z-stacks (1 μm) with at least 5 tissue slices per rat and 5-6 rats per drug group. STEREO INVESTIGATOR software (MBF Bioscience; Williston, Va.) was used to quantify soma size using the optical fractionator probe to survey a sample of neurons in each z-stack while the nucleator probe was used to measure the cross-sectional area and volume of each cell soma. The optical fractionator probe was used to quantify the number of cells in a particular section of tissue through systematic random sampling. Between 12 and 16 regions were surveyed per z-stack. While the optical fractionator probe utilized stereological techniques to select a random sample to be analyzed, the nucleator probe measured the cross-sectional area of each neuron. Therefore, the simultaneous use of these probes systematically assessed neurons in the PBP and PN regions of the VTA in each subject, and provided morphological data for these cells including surface area (μm^2) and volume (μm^3). Cell somas were eligible to be quantified if they were located within the counting frame and/or if the soma touched either of the nucleator frame's green borders. Neurons were ineligible if located outside the counting frame and/or if their soma touched the frame's red borders. After determining this optimum depth, the center of the soma was located and analyzed by the nucleator probe. To eliminate bias associated with tissue orientation, nucleator rays were randomly arranged between quantifications. […]

male and female mice = format: in vivo, mouse; details: s.c., compared to vehicle
Male Sprague Dawley rats [3] = test: Conditioned place preference (CPP), 5-day procedure; format: in vivo, rat; details: 5 days of conditioning
Experimental: (§1) Conditioned Place Preference (CPP) and locomotor activity: Standard CPP chambers (TSE; Chesterfield, Mo.) were used to measure baseline activity and conditioning trials. Baseline activity was measured over 2 days with 4 trials per day (2 in the AM, and 2 in the PM) lasting 20 min each. […] Conditioning trials were conducted for 5 days and tested in an unbiased manner such that drug/environment pairings were counterbalanced for time of drug injection (AM or PM) and compartment (preferred or non-preferred) based on baseline activity. […] This indicates a lack of carry-over effects of drug between sessions. One day following the last conditioning trial, a 20 min test trial was conducted in the same manner as baseline trials in which rats were free to explore both compartments. Change in time spent exploring the drug-paired compartment (test-baseline) was used to indicate preference (or aversion) to the compartment. Approximately 20 min following the final session, rats were perfused and brain samples were taken for immunohistochemical analysis (below). Locomotor activity was assessed by infrared light beams located in the conditioning compartments and the start box. […] Data were recorded in meters and an assessment of locomotor sensitization was made by subtracting the first session from the final session.
(§2) Experimenters were blinded to treatment groups.

Male Sprague Dawley rats [4] = test: Locomotor sensitization during CPP conditioning sessions; format: in vivo, rat; details: 1.8, 3.2, 5.6 mg/Kg i.v., 5 daily injections, compared to vehicle
Experimental: as §1, §2

rats = details: cited from earlier work
male and female rats = test: Naloxone-induced conditioned place aversion (CPA); format: in vivo, rat; details: i.v. morphine 5.6 mg/Kg or ZH853 4.2 mg/Kg, naloxone 1 mg/Kg s.c. 4 h later
Experimental: Four hours later they received s.c. naloxone (1 mg/Kg) and were confined to one side of the apparatus (counterbalanced) for 20 min. The following day the animals received vehicle-then-saline rather than drug-then-naloxone. This cycle (drug+4 h+nlx+next day vehicle+saline) was repeated once, and the next day the animals had access to the entire apparatus (Post-cond).
To assess whether ZH853 induces the negative affect typical of opioid withdrawal, the conditioned place aversion (CPA) test was conducted.

[5] = cumulative doses producing maximum antinociceptive effects; cited from earlier work
male rats [6] = test: Forced abstinence and relapse test (oxycodone seeking); format: in vivo, rat; details: 8th day of forced abstinence; i.v. pretreatment ZH853 1.8 or 3.2 mg/kg, oxycodone 0.32 mg/kg
Experimental: (§3) Self-administration (SA): Self-administration tests were conducted in standard operant chambers (MED Associates, St. Albans, Vt.). Infusions were delivered through TYGON tubing threaded through metal spring leashes and attached to exterior infusion pumps. 3-hour sessions were conducted Monday-Friday during the dark cycle. At the start of each session, the house light was illuminated, and levers extended. […] For the first 5 sessions, rats were trained to lever press for oxycodone (0.1 mg/kg/infusion) on a FR1 reinforcement schedule. For the following 10 sessions, the dose of oxycodone was decreased to 0.05 mg/kg/infusion to increase lever responding.
Forced abstinence and relapse test: Following acquisition of oxycodone self-administration, rats underwent 7 days of forced abstinence from oxycodone and exposure to the testing environment in their home cages. Animals were then split into treatment groups counterbalanced for total oxycodone intake, average number of infusions obtained in the last 3 sessions, and average number of active lever pressings over the last 3 sessions. On the 8th day of forced abstinence, rats were given an intravenous injection of 1.8 mg/kg ZH853, 3.2 mg/kg ZH853, or vehicle. The relapse test began 30 minutes later.

male rats [7] = test: Maintenance of established oxycodone self-administration (substitution); format: in vivo, rat; details: after acquisition of oxycodone SA; drug continued or substituted, i.v. infusions
Experimental: as §3
Maintenance of established oxycodone self-administration: Following acquisition of oxycodone self-administration, animals were split into treatment groups counterbalanced for total oxycodone intake, average number of infusions obtained in the last 3 sessions, and average number of active lever pressings over the last 3 sessions. Ten maintenance sessions were conducted in the same way as oxycodone acquisition except rats were either maintained on 0.1 mg/kg/infusion oxycodone or had drug availability substituted with equi-antinociceptive 1 mg/kg/infusion ZH853 or vehicle.

DBA mice = test: Hot plate antinociception test; format: in vivo, mouse; details: 40 mg/Kg, s.c.

CN1CC[C@]23c4c5ccc(O)c4O[C@H]2[C@@H](O)C=C[C@H]3[C@H]1C5.O=S(=O)(O)O [Morphine, Morphine sulfate, reference compound]
reinstatement of morphine CPP after extinction (Male Sprague-Dawley rats): showed reinstatement of CPP | doses disrupting response rates during test sessions ([1]; bolus injections): ≥ 3.2 mg/kg | Maximum % drug-appropriate responding ([1]; bolus injections made between sessions): 100% | Response rate impairment % ([1]; bolus injections, sulfate): 77% and 77.1% | doses disrupting response rates during test sessions ([1]; cumulative injections): ≥ 5.6 mg/kg | Maximum % drug-appropriate responding ([1]; cumulative injections within a single session): 100% | Response rate impairment % ([1]; cumulative injections, sulfate): 55% and 54.5% | response rates for food during test sessions [1]: reduced response rates compared to vehicle | response rates for food during training ([1]; training doses 3.2 mg/Kg s.c. and 1.8 mg/Kg i.v., compared to saline): modestly impaired | appropriate drug-lever responding ([1]; training, after approximately 20 sessions): > 90% | surface area of TH-positive somas in pVTA [2]: reduced | volume of TH-positive somas in pVTA [2]: reduced | tail flick antinociception (male and female mice): increased the latency to tail flick | conditioned place preference (CPP) (Male Sprague Dawley rats [3]; 3.2 mg/Kg i.v.): produced conditioned place preference (CPP) effects | conditioned place preference (CPP) (Male Sprague Dawley rats [3]; 1.8 and 5.6 mg/Kg i.v.): did not produce significant CPP | locomotor sensitization (LS), day 5 minus day 1 (Male Sprague Dawley rats [4]): produced LS at all doses tested | hourly SA intake (rats; 12-hour SA sessions, 1 mg/Kg/infusion): ~3.5 mg/kg/h | naloxone-induced place aversion (male and female rats): produces aversive behavior

NC(=O)[C@@H]1CCCCNC(=O)CC[C@@H](NC(=O)[C@@H](N)Cc2ccc(O)cc2)C(=O)N[C@@H](Cc2ccccc2)C(=O)N[C@@H](Cc2ccccc2)C(=O)N1 [ZH831, Tyr-c[D-Glu-Phe-Phe-Lys]-NH2]
Response rate impairment % ([1]; bolus injections): 21% and 21.1% | Response rate impairment % ([1]; cumulative injections): 31% and 30.6% | response rates for food during test sessions [1]: not impaired | motor impairment on the Rotarod [5]: lack of motor impairment | reinforcing effects in SA/CPP procedures (rats; rat, in vivo): did not produce reinforcing effects in SA/CPP procedures

NC(=O)[C@@H]1CCC(=O)NCCCC[C@@H](NC(=O)[C@@H](N)Cc2ccc(O)cc2)C(=O)N[C@@H](Cc2c[nH]c3ccccc23)C(=O)N[C@@H](Cc2ccccc2)C(=O)N1 [ZH850, Tyr-c[D-Lys-Trp-Phe-Glu]-NH2]
Response rate impairment % ([1]; bolus injections): 30% and 30.4% | Response rate impairment % ([1]; cumulative injections): −0.3% | response rates for food during test sessions [1]: impaired response rates only after bolus, but not after cumulative injections; also recorded: reduced response rates compared to vehicle

COc1ccc2c3c1O[C@H]1C(=O)CC[C@@]4(O)[C@@H](C2)N(C)CC[C@]314 [oxycodone, reference compound]
oxycodone-seeking (SA behavior, active lever responding) in 1-hour relapse test (male rats [6]): associated with a relapse to SA behavior | self-administration behavior during maintenance sessions (male rats [7]): the drug-seeking behavior was maintained

COC(=O)/C=C/C(=O)N[C@@H]1CC[C@@]2(O)[C@H]3Cc4ccc(O)c5c4[C@@]2(CCN3CC2CC2)[C@H]1O5 [βFNA, beta-funaltrexamine]
antinociceptive properties alone (DBA mice): no antinociceptive properties alone
